Reference: ChEMBL document CHEMBL1156829 (Proc Natl Acad Sci U S A, 2008)

Key:
Plasmodium falciparum [1] = test: NOVARTIS: Inhibition of Plasmodium falciparum 3D7 (drug-susceptible) proliferation in erythrocyte-based infection assay; format: functional, organism-based; conditions: Plasmodium falciparum, 3D7
Plasmodium falciparum [2] = test: NOVARTIS: Inhibition of Plasmodium falciparum W2 (drug-resistant) proliferation in erythrocyte-based infection assay; format: functional, organism-based; conditions: Plasmodium falciparum, W2; read-out: EC50
[3] = NOVARTIS: Cytotoxicity against human hepatocellular carcinoma cell line (Huh7); format: toxicity, cell-based, Huh-7; conditions: Huh7 cells (hepatocellular carcinoma cell line)

c1ccc(/C2=N/c3ccccc3/N=C(/c3ccccc3)c3ccccc32)cc1
EC50 (Plasmodium falciparum [1]): 678 nM
EC50 (Plasmodium falciparum [2]): 770 nM
CC50 [3]: > 100 µM

Cc1ccc(NC(C)C(=O)Nc2ccc(C#N)cc2)cc1S(=O)(=O)N1CCCCC1 (stereo not given)
EC50 (Plasmodium falciparum [1]): 406 nM
EC50 (Plasmodium falciparum [2]): 446 nM
CC50 [3]: 59.5 µM

Cc1cc(Nc2ccc(Cl)cc2)nc(NCc2ccccc2)n1
EC50 (Plasmodium falciparum [1]): 91.9 nM
EC50 (Plasmodium falciparum [2]): 150 nM
CC50 [3]: 19.6 µM

CCCN(CCC)S(=O)(=O)c1ccc(C(=O)Nc2ccccc2C(=O)Oc2ccc3c(c2)c(C(=O)OCC)c(C)n3-c2ccccc2)cc1
EC50 (Plasmodium falciparum [1]): 726 nM
EC50 (Plasmodium falciparum [2]): 744 nM
CC50 [3]: > 100 µM

CN(C)CCNc1cc(-c2ccc3ccccc3c2)nc2ccccc12
EC50 (Plasmodium falciparum [1]): 810 nM
EC50 (Plasmodium falciparum [2]): 729 nM
CC50 [3]: > 100 µM

Cc1ccc2cc3c(N)c4cccc(C)c4nc3nc2c1
EC50 (Plasmodium falciparum [1]): 115 nM
EC50 (Plasmodium falciparum [2]): 73.6 nM
CC50 [3]: > 10 µM

COc1ccc2nc(C)cc(Nc3ccc(Oc4ccc5ccccc5c4Cl)c(Cl)c3)c2c1
EC50 (Plasmodium falciparum [1]): 100 nM
EC50 (Plasmodium falciparum [2]): 491 nM
CC50 [3]: 64.1 µM

O=[N+]([O-])c1ccc(C=NNc2nc3ccccc3[nH]2)cc1
EC50 (Plasmodium falciparum [1]): 818 nM
EC50 (Plasmodium falciparum [2]): 742 nM
CC50 [3]: > 100 µM

CCOc1ccc(-c2nc(NC(=O)CS(=O)(=O)c3ccccc3)sc2C)cc1
EC50 (Plasmodium falciparum [1]): 525 nM
EC50 (Plasmodium falciparum [2]): 740 nM
CC50 [3]: > 100 µM

OCCNc1nc(Nc2ccc(F)cc2)nc2ccccc12
EC50 (Plasmodium falciparum [1]): 223 nM
EC50 (Plasmodium falciparum [2]): 749 nM
CC50 [3]: > 100 µM

CN(C)CCCNc1ccnc2cc(Cl)ccc12
EC50 (Plasmodium falciparum [1]): 76.9 nM
EC50 (Plasmodium falciparum [2]): 76.3 nM
CC50 [3]: > 10 µM

CCOc1ccc(C(=O)C[N+]2=C(C)c3ccc(C)n3CC2)cc1
EC50 (Plasmodium falciparum [1]): 1630 nM
EC50 (Plasmodium falciparum [2]): 767 nM
CC50 [3]: > 100 µM

Cc1cnc(NC(=O)Nc2ccc(-c3ccc(NC(=O)Nc4ncc(C)s4)c(C)c3)cc2C)s1
EC50 (Plasmodium falciparum [1]): 34.1 nM
EC50 (Plasmodium falciparum [2]): 76.7 nM
CC50 [3]: > 10 µM

COc1ccc(N2CCN(C(CNC(=O)CC(C)C)c3ccco3)CC2)cc1 (stereo not given)
EC50 (Plasmodium falciparum [1]): 6690 nM
EC50 (Plasmodium falciparum [2]): 767 nM
CC50 [3]: > 100 µM

CC(C)CN(C(C)C(=O)NC(CN1CCCC1)c1ccccc1)S(=O)(=O)Cc1ccccc1 (stereo not given)
EC50 (Plasmodium falciparum [1]): 60.2 nM
EC50 (Plasmodium falciparum [2]): 76.7 nM
CC50 [3]: > 10 µM

CN(C)c1ccc(NC=CC(=O)C(C)(C)C)cc1
EC50 (Plasmodium falciparum [1]): 1050 nM
EC50 (Plasmodium falciparum [2]): 282 nM
CC50 [3]: 36.9 µM

CCN(CC)c1ccc(NC(=O)c2cccs2)cc1
EC50 (Plasmodium falciparum [1]): 414 nM
EC50 (Plasmodium falciparum [2]): 770 nM
CC50 [3]: > 100 µM

C[n+]1c2n(c3ccccc31)N=C(c1ccccc1)CS2
EC50 (Plasmodium falciparum [1]): 454 nM
EC50 (Plasmodium falciparum [2]): 347 nM
CC50 [3]: 45.1 µM

N#Cc1c(N)nc2sc(C(=O)Nc3ccc(Br)cc3)c(N)c2c1-c1ccccc1
EC50 (Plasmodium falciparum [1]): 8210 nM
EC50 (Plasmodium falciparum [2]): 763 nM
CC50 [3]: > 100 µM

CC(Oc1cccc(Cl)c1)C(=O)N1CCc2ccccc21 (stereo not given)
EC50 (Plasmodium falciparum [1]): 748 nM
EC50 (Plasmodium falciparum [2]): 750 nM
CC50 [3]: > 100 µM

Cc1ccn2c(NC(C)(C)CC(C)(C)C)c(-c3ccccc3OC(=O)C3CCC3)nc2c1
EC50 (Plasmodium falciparum [1]): 822 nM
EC50 (Plasmodium falciparum [2]): 75.7 nM
CC50 [3]: > 10 µM

COc1cc2nc(Nc3ccc(F)cc3)nc(N)c2cc1OC
EC50 (Plasmodium falciparum [1]): 117 nM
EC50 (Plasmodium falciparum [2]): 139 nM
CC50 [3]: 18.4 µM

COc1cc(CN2CCC3(CC2)CC3C(=O)NCCc2ccccc2OC)ccc1O (stereo not given)
EC50 (Plasmodium falciparum [1]): 2350 nM
EC50 (Plasmodium falciparum [2]): 739 nM
CC50 [3]: > 100 µM

Cc1cc(C)nc(NNc2c([N+](=O)[O-])cccc2[N+](=O)[O-])n1
EC50 (Plasmodium falciparum [1]): 1800 nM
EC50 (Plasmodium falciparum [2]): 167 nM
CC50 [3]: 22 µM

CC(=O)Nc1ccc(S(=O)(=O)N2CCC(c3nc(-c4cccnc4)no3)CC2)cc1
EC50 (Plasmodium falciparum [1]): > 9640 nM
EC50 (Plasmodium falciparum [2]): 736 nM
CC50 [3]: > 100 µM

CCC(=O)NNc1cc(N2CCCC2)nc(N2CCCC2)n1
EC50 (Plasmodium falciparum [1]): 790 nM
EC50 (Plasmodium falciparum [2]): 760 nM
CC50 [3]: > 100 µM

CCCN(CCC)S(=O)(=O)c1cc(Br)cc2c1N(C(=O)CC)CC2
EC50 (Plasmodium falciparum [1]): 476 nM
EC50 (Plasmodium falciparum [2]): 760 nM
CC50 [3]: > 100 µM

Cc1ccc(-[n+]2c(-c3ccccc3)cn3c2CCCCC3)cc1
EC50 (Plasmodium falciparum [1]): 605 nM
EC50 (Plasmodium falciparum [2]): 515 nM
CC50 [3]: 67.8 µM

CCOC(=O)c1c(N=Cc2cccc(OC)c2O)sc2c1CCN(C)C2
EC50 (Plasmodium falciparum [1]): > 12500 nM
EC50 (Plasmodium falciparum [2]): 744 nM
CC50 [3]: > 100 µM

CCCCOc1ccc(N(C(C)=O)C2=C(N3CCOCC3)C(=O)c3ccccc3C2=O)cc1
EC50 (Plasmodium falciparum [1]): 232 nM
EC50 (Plasmodium falciparum [2]): 304 nM
CC50 [3]: 41 µM

CCCCCCCCC(=O)Oc1ccccc1-c1nc2cc(C)ccn2c1NC(C)(C)CC(C)(C)C
EC50 (Plasmodium falciparum [1]): 713 nM
EC50 (Plasmodium falciparum [2]): 74 nM
CC50 [3]: > 10 µM

COc1ccc(Nc2nc(NN=Cc3cc([N+](=O)[O-])ccc3OC)nc(Nc3ccc([N+](=O)[O-])cc3)n2)cc1
EC50 (Plasmodium falciparum [1]): 728 nM
EC50 (Plasmodium falciparum [2]): 762 nM
CC50 [3]: > 100 µM

CCOC(=O)NN=C(C)c1ccc(C(C)=NNC(=O)OCC)cc1
EC50 (Plasmodium falciparum [1]): > 5590 nM
EC50 (Plasmodium falciparum [2]): 747 nM
CC50 [3]: > 100 µM

Clc1ccc(-c2csc3ncnc(NCc4ccncc4)c23)cc1
EC50 (Plasmodium falciparum [1]): 2890 nM
EC50 (Plasmodium falciparum [2]): 746 nM
CC50 [3]: > 100 µM

OC(CN1CCN(Cc2ccccc2)CC1)Cn1c2ccc(I)cc2c2cc(I)ccc21 (stereo not given)
EC50 (Plasmodium falciparum [1]): 651 nM
EC50 (Plasmodium falciparum [2]): 148 nM
CC50 [3]: 20.1 µM

O=c1sc(=NCC(O)c2ccc(Cl)c(Cl)c2)[nH]c2ccccc12 (stereo not given)
EC50 (Plasmodium falciparum [1]): 757 nM
EC50 (Plasmodium falciparum [2]): 73.1 nM
CC50 [3]: > 10 µM

CCCNC1=C(c2ccc(OC)cc2)C(=O)c2ccccc21
EC50 (Plasmodium falciparum [1]): 3380 nM
EC50 (Plasmodium falciparum [2]): 754 nM
CC50 [3]: > 100 µM

CN(C)c1ccc(/C=C/C(=O)NC(=O)c2ccccc2O)cc1
EC50 (Plasmodium falciparum [1]): 84.4 nM
EC50 (Plasmodium falciparum [2]): 75.2 nM
CC50 [3]: > 10 µM

CCOc1ccc2[nH]c3c(NCCCN4CCOCC4)ncnc3c2c1
EC50 (Plasmodium falciparum [1]): 749 nM
EC50 (Plasmodium falciparum [2]): 267 nM
CC50 [3]: 36.4 µM

CC[n+]1c(C)n(-c2ccccc2)c2ccc(C3Nc4ccccc4S3)cc21 (stereo not given)
EC50 (Plasmodium falciparum [1]): 1180 nM
EC50 (Plasmodium falciparum [2]): 734 nM
CC50 [3]: > 100 µM

CCn1c(SCCCCNC(=O)c2cc([N+](=O)[O-])cc([N+](=O)[O-])c2)nc(-c2ccc(C)cc2)c1-c1ccc(C)cc1
EC50 (Plasmodium falciparum [1]): 679 nM
EC50 (Plasmodium falciparum [2]): 73.1 nM
CC50 [3]: > 10 µM

Cc1oc(C)c2c(=O)cc(-c3cccs3)cc(O)c12
EC50 (Plasmodium falciparum [1]): 1220 nM
EC50 (Plasmodium falciparum [2]): 758 nM
CC50 [3]: > 100 µM

CCc1c2ccc(C)n2cc[n+]1CC
EC50 (Plasmodium falciparum [1]): 610 nM
EC50 (Plasmodium falciparum [2]): 749 nM
CC50 [3]: > 100 µM

COc1ccc(S(=O)(=O)N=C2C=C(Nc3ccccc3OC)C(=O)c3ccccc32)cc1
EC50 (Plasmodium falciparum [1]): 338 nM
EC50 (Plasmodium falciparum [2]): 154 nM
CC50 [3]: 20.1 µM

CCc1ccc(Nc2cc(C)nc3nc(C)nn23)cc1
EC50 (Plasmodium falciparum [1]): 574 nM
EC50 (Plasmodium falciparum [2]): 768 nM
CC50 [3]: > 100 µM

Cc1cccc(C(=O)NCc2nnc(S)n2-c2cccc(C(F)(F)F)c2)c1
EC50 (Plasmodium falciparum [1]): 2180 nM
EC50 (Plasmodium falciparum [2]): 750 nM
CC50 [3]: > 100 µM

O=C(c1cc2n(n1)C(C(F)(F)F)CC(c1cccs1)N2)N1CCN(C(c2ccccc2)c2ccccc2)CC1 (stereo not given)
EC50 (Plasmodium falciparum [1]): 341 nM
EC50 (Plasmodium falciparum [2]): 745 nM
CC50 [3]: > 100 µM

COc1cc(CN(CC[C@H](c2ccccc2)c2c(O)ccc3ccccc23)Cc2ccccc2)cc(OC)c1
EC50 (Plasmodium falciparum [1]): 702 nM
EC50 (Plasmodium falciparum [2]): 75.4 nM
CC50 [3]: > 10 µM

Cc1cc(C)n(CC(O)Cn2c3ccc(Cl)cc3c3cc(Cl)ccc32)n1 (stereo not given)
EC50 (Plasmodium falciparum [1]): 1010 nM
EC50 (Plasmodium falciparum [2]): 342 nM
CC50 [3]: 45.5 µM

CCCN(CCC)S(=O)(=O)c1cc(Br)cc2c1N(C(=O)C1CC1)CC2
EC50 (Plasmodium falciparum [1]): 410 nM
EC50 (Plasmodium falciparum [2]): 736 nM
CC50 [3]: > 100 µM

Cc1ccn2c(NC(C)(C)CC(C)(C)C)c(-c3ccccc3OC(=O)C(C)(C)CCl)nc2c1
EC50 (Plasmodium falciparum [1]): 699 nM
EC50 (Plasmodium falciparum [2]): 76.3 nM
CC50 [3]: > 10 µM

CN1C2CCC1C(=Cc1ccsc1)C(=O)C2=Cc1ccsc1
EC50 (Plasmodium falciparum [1]): 676 nM
EC50 (Plasmodium falciparum [2]): 748 nM
CC50 [3]: > 100 µM

c1ccc(Cn2c(N=Nc3c(Nc4ccccc4)ccc4ccccc34)nc3ccccc32)cc1
EC50 (Plasmodium falciparum [1]): 2730 nM
EC50 (Plasmodium falciparum [2]): 669 nM
CC50 [3]: 88 µM

CCCCOC(=O)c1ccc(NC2=C(c3ccc(OC)cc3)C(=O)c3ccccc32)cc1
EC50 (Plasmodium falciparum [1]): 1210 nM
EC50 (Plasmodium falciparum [2]): 758 nM
CC50 [3]: > 100 µM

CCC1=[N+](C)c2cccc3cccc(c23)N1C
EC50 (Plasmodium falciparum [1]): 958 nM
EC50 (Plasmodium falciparum [2]): 739 nM
CC50 [3]: > 100 µM
